From patent US6455284B1, “Metabolically engineered E. coli for enhanced production of oxaloacetate-derived biochemicals” (The University of Georgia Research Foundation, Inc., priority 1998, dated 2002) come the findings set out here.

Data set [1] concerns the target R. etli pyruvate carboxylase (Rhizobium etli, UniProt Q2K340). The experiment in a line: Pyruvate carboxylase (PC) coupled enzyme assay (Payne and Morris) with E. coli cell extracts. The class given is biochemical. Conditions: for effect of nicotinamide nucleotides on pyruvate carboxylase activity: cell-free crude extract from MG1655 pTrc99A-pyc, FIG. 9. The method, then: Pyruvate carboxylase (PC) enzyme assay. For pyruvate carboxylase activity measurements, 100 mL of mid-log phase culture was harvested by centrifugation at 7,000×g for 15 minutes at 4° C. and washed with 10 mL of 100 mM Tris-Cl (pH 8.0). The cells were then resuspended in 4 mL of 100 mM Tris-Cl (pH 8.0) and subsequently subjected to cell disruption by sonication. The cell debris was removed by centrifugation at 20,000×g for 15 minutes at 4° C. The pyruvate carboxylase activity was measured by the method of Payne and Morris (J. Gen. Microbiol., 59, 97-101 (1969)). In this assay the oxaloacetate produced by pyruvate carboxylase is converted to citrate by the addition of citrate synthase in the presence of acetyl CoA and 5,5-dithio-bis(2-nitro-benzoate) (DTNB) (Aldrich Chemical Co.); the homotetramer pyruvate carboxylase enzyme from R. etli requires acetyl coenzyme A for activation. The rate of increase in absorbence at 412 nm due to the presence of CoA-dependent formation of the 5-thio-2-nitrobenzoate was monitored, first after the addition of pyruvate and then after the addition of ATP. The difference between these two rates was taken as the ATP-dependent pyruvate carboxylase activity. The concentration of reaction components per milliliter of mixture was as follows: 100 mM Tris-Cl (pH 8.0), 5 mM MgCl2.H2O, 50 mM Na HCO3, 0.1 mM acetyl CoA, 0.25 mM DTNB, and 5 units (U) of citrate synthase. Pyruvate, ATP, ADP, or aspartate, were added as specified in the Results section, below. The reaction was started by adding 50 μl of cell extract. One unit of pyruvate carboxylase activity corresponds to the formation of 1 μmol of 5-thio-2-nitrobenzoate per mg of protein per minute. All enzyme assays were performed in triplicate and a standard error of less then 10% was observed. The total protein in the cell extracts was determined by the Lowry method (O. Lowry et al., J. Biol. Chem., 193, 265-275 (1951)).
R. etli pyruvate carboxylase can convert pyruvate to oxaloacetate in E. coli. To confirm that the expressed pyruvate carboxylase protein was enzymatically active in E. coli, the coupled enzyme assay developed by Payne and Morris was employed to assess pyruvate carboxylase activity (J. Payne et al., J. Gen. Microbiol., 59, 97-101 (1969)). Cell extracts containing the induced pUC18-pyc construct (MG1655 pUC18-pyc) were tested for pyruvate carboxylase activity using varying amounts of pyruvate, and compared to controls containing the pUC18 construct (MG1655 pUC18). ATP was added at a final concentration of 5 mM to the reaction mixture and pyruvate carboxylase activity was determined in the presence of increasing amounts of pyruvate. […] This value is in excellent agreement with other pyruvate carboxylase enzymes that have been studied (H. Feir et al., Can. J. Biochem., 47, 698-710 (1969); H. Modak et al., Microbiol., 141, 2619-2628 (1995); M. Scrutton et al., Arch. Biochem. Biophys., 164, 641-654 (1974)).
It is well documented that the α4 pyruvate carboxylase enzymes can be inhibited by either aspartate or adenosine diphosphate (ADP). Aspartate is the first amino acid that is synthesized from oxaloacetate and ADP is liberated when pyruvate carboxylase converts pyruvate to oxaloacetate. Pyruvate carboxylase activity in the presence of each of these inhibitors was evaluated using extracts of MG1655 cells that contained the pUC18-pyc construct. The effect of aspartate was analyzed by adding ATP and pyruvate to the reaction mixture to final concentrations of 5 mM and 6 mM, respectively, then determining pyruvate carboxylase activity in the presence of increasing amounts of aspartate. […] As expected, the pyruvate carboxylase activity was inhibited by aspartate and the specific activity decreased to approximately 43% in the presence of 8 mM aspartate. The effect of ADP was analyzed by adding pyruvate to the reaction mixture to a final concentration of 5 mM, then determining pyruvate carboxylase activity in the presence of increasing amounts of […]. […]

Data set [2] concerns biotinylated R. etli pyruvate carboxylase expressed in E. coli. The experiment in a line: Western blot of in vivo biotinylated pyruvate carboxylase in MG1655 pUC18-pyc cells grown with varying biotin. Type of data set: cell-based. Conditions: M9 media, 37° C., mid-log. Here is the method:
Protein gels and Western blotting. Heat-denatured cell extracts were separated on 10% SDS-PAGE gels as per Altman et. al. (J. Bact., 155, 1130-1137 (1983)) and Western blots were carried out as per Carroll and Gherardini (Infect. Immun., 64, 392-398 (1996)). ALS225 E. coli cells containing either pUC18 or pUC18-pyc were grown to mid-log in rich media at 37° C. both in the presence and absence of IPTG. Because ALS225 contains lacIq1 on the F′, significant induction of the pUC18-pyc construct should not occur unless IPTG is added. Protein extracts were prepared, subjected to SDS PAGE, and Western blotted. Proteins which had been biotinylated in vivo were then detected using the Sigma-Blot protein detection kit (Sigma Chemical Corp., St. Louis, Mo.). The instructions of the manufacturer were followed except that during the development of the western blots the protein biotinylation step was omitted, thus allowing for the detection of only those proteins which had been biotinylated in vivo.
Effects of biotin and biotin holoenzyme synthase on the expression of biotinylated R. etli pyruvate carboxylase in E. coli. […] Proteins which had been biotinylated in vivo were then detected using the Sigma-Blot protein detection kit, as described above. […] The amount of biotinylated pyruvate carboxylase that was present in each sample was quantitated using a Stratagene Eagle Eye II Still Video. […]

Substrate in data set [3]: CC(=O)C(=O)O
The experiment in a line: Pyruvate carboxylase (PC) coupled enzyme assay (Payne and Morris) with E. coli cell extracts. The class given is biochemical, R. etli. As to conditions: other: MG1655 pUC18-pyc extract; ATP 5 mM; Lineweaver-Burke plot; pH 8.0. Here is the method:
Pyruvate carboxylase (PC) enzyme assay. For pyruvate carboxylase activity measurements, 100 mL of mid-log phase culture was harvested by centrifugation at 7,000×g for 15 minutes at 4° C. and washed with 10 mL of 100 mM Tris-Cl (pH 8.0). The cells were then resuspended in 4 mL of 100 mM Tris-Cl (pH 8.0) and subsequently subjected to cell disruption by sonication. The cell debris was removed by centrifugation at 20,000×g for 15 minutes at 4° C. The pyruvate carboxylase activity was measured by the method of Payne and Morris (J. Gen. Microbiol., 59, 97-101 (1969)). […] The rate of increase in absorbence at 412 nm due to the presence of CoA-dependent formation of the 5-thio-2-nitrobenzoate was monitored, first after the addition of pyruvate and then after the addition of ATP. […] The total protein in the cell extracts was determined by the Lowry method (O. Lowry et al., J. Biol. Chem., 193, 265-275 (1951)).
R. etli pyruvate carboxylase can convert pyruvate to oxaloacetate in E. coli. […] ATP was added at a final concentration of 5 mM to the reaction mixture and pyruvate carboxylase activity was determined in the presence of increasing amounts of pyruvate. […]

`NC(=O)C1=CN([C@@H]2O[C@H](COP(=O)(O)OP(=O)(O)OC[C@H]3O[C@@H](n4cnc5c(N)ncnc54)[C@H](O)[C@@H]3O)[C@@H](O)[C@H]2O)C=CC1` [NADH, reduced nicotinamide adenine dinucleotide]: in data set [1], the “effect of nicotinamide nucleotides on pyruvate carboxylase activity” value (“effect of nicotinamide nucleotides” for short) was “inhibited pyruvate carboxylase”. On to `NC(=O)c1ccc[n+]([C@@H]2O[C@H](COP(=O)([O-])OP(=O)(O)OC[C@H]3O[C@@H](n4cnc5c(N)ncnc54)[C@H](O)[C@@H]3O)[C@@H](O)[C@H]2O)c1` [NAD+], for which the “effect of nicotinamide nucleotides” value in data set [1] is “did not”. As to `Nc1ncnc2c1ncn2[C@@H]1O[C@H](COP(=O)(O)OP(=O)(O)OP(=O)(O)O)[C@@H](O)[C@H]1O` [ATP], the Km in data set [1] (MG1655 pUC18-pyc extract, pyruvate 5 mM, Lineweaver-Burke plot, read-out: saturation constant (Km) for expressed pyruvate carboxylase with respect to ATP) turned out to be 193 µM. Usually remaining activity stands for what remains of the control signal, in per cent. As to `N[C@@H](CC(=O)O)C(=O)O` [aspartate], the remaining activity at 8000 µM in data set [1] (read-out: pyruvate carboxylase specific activity remaining) was approximately 43%. For `O=C(O)CCCC[C@@H]1SC[C@@H]2NC(=O)N[C@@H]21` [biotin], the “biotin concentration sufficient to biotinylate all of the expressed pyruvate carboxylase” value in data set [2] is 50 ng/mL. Consider `NC(=O)c1ccc[n+]([C@@H]2O[C@H](COP(=O)([O-])OP(=O)(O)OC[C@H]3O[C@@H](n4cnc5c(N)ncnc54)[C@H](OP(=O)(O)O)[C@@H]3O)[C@@H](O)[C@H]2O)c1` [NADP+], for which the “effect of nicotinamide nucleotides” value in data set [1] is “did not”. Consider `NC(=O)C1=CN([C@@H]2O[C@H](COP(=O)(O)OP(=O)(O)OC[C@H]3O[C@@H](n4cnc5c(N)ncnc54)[C@H](OP(=O)(O)O)[C@@H]3O)[C@@H](O)[C@H]2O)C=CC1` [NADPH], for which the “effect of nicotinamide nucleotides” value in data set [1] is on record as “did not”. The Ki is a measure of affinity in units of concentration, obtained from inhibition or displacement. A higher Ki goes with weaker binding. The molecule `Nc1ncnc2c1ncn2[C@@H]1O[C@H](COP(=O)(O)OP(=O)(O)O)[C@@H](O)[C@H]1O` [ADP, adenosine diphosphate] showed an inhibitory constant (Ki) in data set [1] of 142 µM. Moreover, the “mode of inhibition of pyruvate carboxylase” value in data set [1] (MG1655 pUC18-pyc extract, pyruvate 5 mM, increasing ATP) is “competitive inhibitor of ATP”.

B1: R. etli pyruvate carboxylase (Rhizobium etli CFN 42) (protein)
chain: MPISKILVANRSEIAIRVFRAANELGIKTVAIWAEEDKLALHRFKADESYQVGRGPHLARDLGPIESYLSIDEVIRVAKLSGADAIHPGYGLLSESPEFVDACNKAGIIFIGPKADTMRQLGNKVAARNLAISVGVPVVPATEPLPDDMAEVAKMAAAIGYPVMLKASWGGGGRGMRVIRSEADLAKEVTEAKREAMAAFGKDEVYLEKLVERARHVESQILGDTHGNVVHLFERDCSVQRRNQKVVERAPAPYLSEAQRQELAAYSLKIAGATNYIGAGTVEYLMDADTGKFYFIEVNPRIQVEHTVTEVVTGIDIVKAQIHILDGAAIGTPQSGVPNQEDIRLNGHALQCRVTTEDPEHNFIPDYGRITAYRSASGFGIRLDGGTSYSGAIITRYYDPLLVKVTAWAPNPLEAISRMDRALREFRIRGVATNLTFLEAIIGHPKFRDNSYTTRFIDTTPELFQQVKRQDRATKLLTYLADVTVNGHPEAKDRPKPLENAARPVVPYANGNGVKDGTKQLLDTLGPKKFGEWMRNEKRVLLTDTTMRDGHQSLLATRMRTYDIARIAGTYSHALPNLLSLECWGGATFDVSMRFLTEDPWERLALIREGAPNLLLQMLLRGANGVGYTNYPDNVVKYFVRQAAKGGIDLFRVFDCLNWVENMRVSMDAIAEENKLCEAAICYTGDILNSARPKYDLKYYTNLAVELEKAGAHIIAVKDMAGLLKPAAAKVLFKALREATGLPIHFHTHDTSGIAAATVLAAVEAGVDAVDAAMDALSGNTSQPCLGSIVEALSGSERDPGLDPAWIRRISFYWEAVRNQYAAFESDLKGPASEVYLHEMPGGQFTNLKEQARSLGLETRWHQVAQAYADANQMFGDIVKVTPSSKVVGDMALMMVSQDLTVADVVSPDREVSFPESVVSMLKGDLGQPPSGWPEALQKKALKGEKPYTVRPGSLLKEADLDAERKVIEKKLEREVSDFEFASYLMYPKVFTDFALASDTYGPVSVLPTPAYFYGLADGEELFADIEKGKTLVIVNQAVSATDSQGMVTVFFELNGQPRRIKVPDRAHGATGAAVRRKAEPGNAAHVGAPMPGVISRVFVSSGQAVNAGDVLVSIEAMKMETAIHAEKDGTIAEVLVKAGDQIDAKDLLAVYGG
Consider B1, for which, in data set [3], the Km was 0.249 mM.
